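A five-concentration, 48-hour dose response in 96-well plates underlies each endpoint, interpolated linearly between surrounding concentrations. GI50: concentration for 50% inhibition of growth.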 Active and inactive are the calls of the source. Cut-off read from the data, not from the text of the source: active = GI50 up to about 1.1 µM and inactive = higher.
How the values were obtained:
Assay in all cases: NCI-60 cell line screen, 48 h
[1] = test system: 786-0
[2] = test system: A549
[3] = test system: ACHN
[4] = test system: BT-549
[5] = test system: CAKI-1
[6] = test system: CCRF-CEM
[7] = test system: COLO 205
[8] = test system: DU-145
[9] = test system: EKVX
[10] = test system: HCC 2998
[11] = test system: HCT-116
[12] = test system: HCT-15
[13] = test system: HOP-62
[14] = test system: HOP-92
[15] = test system: HT-29
[16] = test system: Hs-578T
[17] = test system: IGROV-1
[18] = test system: K562
[19] = test system: KM12
[20] = test system: LOX IMVI
[21] = test system: M14
[22] = test system: MDA-MB-435
[23] = test system: MDA-N
[24] = test system: MOLT-4
[25] = test system: Malme-3M
[26] = test system: NCI-H226
[27] = test system: NCI-H23
[28] = test system: NCI-H460
[29] = test system: NCI-H522
[30] = test system: NCI/ADR-RES
[31] = test system: OVCAR-3
[32] = test system: OVCAR-5
[33] = test system: OVCAR-8
[34] = test system: PC-3
[35] = test system: RXF 393
[36] = test system: SF-268
[37] = test system: SF-295
[38] = test system: SK-MEL-28
[39] = test system: SK-MEL-2
[40] = test system: SK-MEL-5
[41] = test system: SK-OV-3
[42] = test system: SN12C
[43] = test system: SNB-19
[44] = test system: SNB-75
[45] = test system: SR
[46] = test system: SW-620
[47] = test system: TK-10
[48] = test system: U-251
[49] = test system: UACC-257
[50] = test system: UACC-62
[51] = test system: UO-31
[52] = test system: HL-60
[53] = test system: MCF7
[54] = test system: MDA-MB-231
[55] = test system: OVCAR-4
[56] = test system: SF-539
[57] = test system: A498
[58] = test system: RPMI-8226

**Q.** What does the source list for `C[C@H](N)C(=O)Nc1ccc(-c2nc3ccccc3s2)cc1Cl`?
**A.** GI50 [1]: 12.5 µM (inactive); GI50 [2]: 13.3 µM (inactive); GI50 [3]: 15.4 µM (inactive); GI50 [4]: 16.3 µM (inactive); GI50 [5]: 10.7 µM (inactive); GI50 [6]: 12 µM (inactive); GI50 [7]: 12.5 µM (inactive); GI50 [8]: 16.6 µM (inactive); GI50 [9]: 11.9 µM (inactive); GI50 [10]: 0.56 µM (active); GI50 [11]: 11.6 µM (inactive); GI50 [12]: 19.6 µM; GI50 [13]: 12.3 µM (inactive); GI50 [14]: 33.1 µM (inactive); GI50 [15]: 16.7 µM (inactive); GI50 [16]: 20.1 µM (inactive); GI50 [17]: 0.165 µM (active); GI50 [18]: 17.1 µM (inactive); GI50 [19]: 15 µM (inactive); GI50 [20]: 7.82 µM (inactive); GI50 [21]: 5.78 µM (inactive); GI50 [22]: 13.6 µM (inactive); GI50 [23]: 13.2 µM (inactive); GI50 [24]: 17.7 µM (inactive); GI50 [25]: 22.1 µM (inactive); GI50 [26]: 0.0745 µM (active); GI50 [27]: 16.5 µM (inactive); GI50 [28]: 0.916 µM (active); GI50 [29]: 20.5 µM (inactive); GI50 [30]: 30.8 µM (inactive); GI50 [31]: 0.153 µM (active); GI50 [32]: 0.27 µM (active); GI50 [33]: 26 µM (inactive); GI50 [34]: 13.8 µM (inactive); GI50 [35]: 15.1 µM (inactive); GI50 [36]: 17.9 µM (inactive); GI50 [37]: 16.6 µM (inactive); GI50 [38]: 14 µM (inactive); GI50 [39]: 15.7 µM (inactive); GI50 [40]: 16.1 µM (inactive); GI50 [41]: 16.4 µM (inactive); GI50 [42]: 15.9 µM (inactive); GI50 [43]: 16.3 µM (inactive); GI50 [44]: 16 µM (inactive); GI50 [45]: 3.8 µM (inactive); GI50 [46]: 15.2 µM (inactive); GI50 [47]: 0.161 µM (active); GI50 [48]: 14.6 µM (inactive); GI50 [49]: 18.6 µM (inactive); GI50 [50]: 16.4 µM (inactive); GI50 [51]: 10.7 µM (inactive)

**Q.** For `NC(=O)N/N=C(\Cc1cc(=O)oc2cc(O)ccc12)C(=O)Nc1ccccc1C(N)=O`, which GI50 [1] is on record?
**A.** Its GI50 is > 100 µM (inactive).

**Q.** And the GI50 [2]?
**A.** Its GI50 is > 100 µM (inactive).

**Q.** What about the GI50 [3] of the same compound?
**A.** Its GI50 is > 100 µM (inactive).

**Q.** What about the GI50 [4] of the same compound?
**A.** Its GI50 is > 100 µM (inactive).

**Q.** And the GI50 [5]?
**A.** Its GI50 is > 100 µM (inactive).

**Q.** And the GI50 [6]?
**A.** Its GI50 is > 100 µM (inactive).

**Q.** And the GI50 [7]?
**A.** The GI50 was > 100 µM (inactive).

**Q.** What about the GI50 [8] of the same compound?
**A.** Its GI50 is > 100 µM (inactive).

**Q.** And the GI50 [9]?
**A.** Its GI50 is > 100 µM (inactive).

**Q.** And the GI50 [10]?
**A.** The GI50 was 61 µM (inactive).

**Q.** And the GI50 [11]?
**A.** Its GI50 is > 100 µM (inactive).

**Q.** And the GI50 [12]?
**A.** Its GI50 is over 100 µM.

**Q.** And the GI50 [52]?
**A.** Its GI50 is > 100 µM (inactive).

**Q.** And the GI50 [13]?
**A.** Its GI50 is > 100 µM (inactive).

**Q.** And the GI50 [14]?
**A.** Its GI50 is > 100 µM (inactive).

**Q.** And the GI50 [15]?
**A.** Its GI50 is > 100 µM (inactive).

**Q.** What about the GI50 [16] of the same compound?
**A.** The GI50 was > 100 µM (inactive).

**Q.** And the GI50 [17]?
**A.** Its GI50 is > 100 µM (inactive).

**Q.** What about the GI50 [19] of the same compound?
**A.** The GI50 was > 100 µM (inactive).

**Q.** What about the GI50 [20] of the same compound?
**A.** Its GI50 is > 100 µM (inactive).

**Q.** What about the GI50 [21] of the same compound?
**A.** Its GI50 is > 100 µM (inactive).

**Q.** And the GI50 [53]?
**A.** Its GI50 is > 100 µM (inactive).

**Q.** What about the GI50 [54] of the same compound?
**A.** The GI50 was > 100 µM (inactive).

**Q.** And the GI50 [22]?
**A.** The GI50 was > 100 µM (inactive).

**Q.** What about the GI50 [23] of the same compound?
**A.** The GI50 was > 100 µM (inactive).

**Q.** And the GI50 [24]?
**A.** The GI50 was > 100 µM (inactive).

**Q.** And the GI50 [26]?
**A.** Its GI50 is > 100 µM (inactive).

**Q.** And the GI50 [27]?
**A.** Its GI50 is > 100 µM (inactive).

**Q.** And the GI50 [28]?
**A.** Its GI50 is > 100 µM (inactive).

**Q.** And the GI50 [29]?
**A.** The GI50 was > 100 µM (inactive).

**Q.** What about the GI50 [30] of the same compound?
**A.** The GI50 was > 100 µM (inactive).

**Q.** And the GI50 [31]?
**A.** The GI50 was > 100 µM (inactive).

**Q.** And the GI50 [55]?
**A.** Its GI50 is > 100 µM (inactive).

**Q.** What about the GI50 [32] of the same compound?
**A.** The GI50 was > 100 µM (inactive).

**Q.** And the GI50 [33]?
**A.** Its GI50 is > 100 µM (inactive).

**Q.** What about the GI50 [34] of the same compound?
**A.** The GI50 was > 100 µM (inactive).

**Q.** And the GI50 [35]?
**A.** The GI50 was > 100 µM (inactive).

**Q.** What about the GI50 [36] of the same compound?
**A.** Its GI50 is > 100 µM (inactive).

**Q.** And the GI50 [37]?
**A.** Its GI50 is > 100 µM (inactive).

**Q.** And the GI50 [56]?
**A.** Its GI50 is > 100 µM (inactive).

**Q.** What about the GI50 [38] of the same compound?
**A.** Its GI50 is > 100 µM (inactive).

**Q.** And the GI50 [39]?
**A.** The GI50 was > 100 µM (inactive).

**Q.** And the GI50 [40]?
**A.** The GI50 was > 100 µM (inactive).

**Q.** What about the GI50 [41] of the same compound?
**A.** The GI50 was > 100 µM (inactive).

**Q.** And the GI50 [42]?
**A.** The GI50 was > 100 µM (inactive).

**Q.** What about the GI50 [43] of the same compound?
**A.** The GI50 was > 100 µM (inactive).

**Q.** And the GI50 [44]?
**A.** The GI50 was > 100 µM (inactive).

**Q.** What about the GI50 [46] of the same compound?
**A.** Its GI50 is > 100 µM (inactive).

**Q.** What about the GI50 [47] of the same compound?
**A.** Its GI50 is > 100 µM (inactive).

**Q.** What about the GI50 [48] of the same compound?
**A.** Its GI50 is > 100 µM (inactive).

**Q.** And the GI50 [49]?
**A.** Its GI50 is > 100 µM (inactive).

**Q.** What about the GI50 [50] of the same compound?
**A.** The GI50 was > 100 µM (inactive).

**Q.** And the GI50 [51]?
**A.** The GI50 was > 100 µM (inactive).

**Q.** Which results are given for `O=C(NCCC1CN(C(=O)OCc2ccccc2)c2ccccc21)OCc1ccccc1` (stereo not given)?
**A.** GI50 [1]: > 100 µM (inactive); GI50 [57]: > 100 µM (inactive); GI50 [2]: 85.3 µM (inactive); GI50 [3]: > 100 µM (inactive); GI50 [4]: > 100 µM (inactive); GI50 [5]: > 100 µM (inactive); GI50 [7]: > 100 µM (inactive); GI50 [8]: > 100 µM (inactive); GI50 [9]: 64.6 µM (inactive); GI50 [10]: > 100 µM (inactive); GI50 [11]: 71.9 µM (inactive); GI50 [12]: > 100 µM; GI50 [13]: > 100 µM (inactive); GI50 [14]: > 100 µM (inactive); GI50 [15]: > 100 µM (inactive); GI50 [16]: > 100 µM (inactive); GI50 [17]: > 100 µM (inactive); GI50 [18]: > 100 µM (inactive); GI50 [19]: > 100 µM (inactive); GI50 [21]: > 100 µM (inactive); GI50 [53]: 60.4 µM (inactive); GI50 [54]: > 100 µM (inactive); GI50 [22]: > 100 µM (inactive); GI50 [23]: > 100 µM (inactive); GI50 [24]: > 100 µM (inactive); GI50 [25]: > 100 µM (inactive); GI50 [27]: > 100 µM (inactive); GI50 [28]: 96.8 µM (inactive); GI50 [29]: 90.6 µM (inactive); GI50 [30]: > 100 µM (inactive); GI50 [31]: > 100 µM (inactive); GI50 [55]: > 100 µM (inactive); GI50 [32]: > 100 µM (inactive); GI50 [33]: > 100 µM (inactive); GI50 [34]: > 100 µM (inactive); GI50 [58]: > 100 µM (inactive); GI50 [35]: > 100 µM (inactive); GI50 [36]: > 100 µM (inactive); GI50 [37]: > 100 µM (inactive); GI50 [38]: > 100 µM (inactive); GI50 [39]: > 100 µM (inactive); GI50 [40]: > 100 µM (inactive); GI50 [41]: > 100 µM (inactive); GI50 [43]: > 100 µM (inactive); GI50 [44]: > 100 µM (inactive); GI50 [46]: > 100 µM (inactive); GI50 [47]: > 100 µM (inactive); GI50 [48]: > 100 µM (inactive); GI50 [49]: > 100 µM (inactive); GI50 [50]: > 100 µM (inactive); GI50 [51]: > 100 µM (inactive)
